Data on 1 molecule can be found in patent US6509161B1, “Green fluorescent protein” (Gentronix Limited, priority 2000, dated 2003).

Series [1] can be described thus: Fluorescence polarisation ratio of fluorophores, commercial fluorescence spectrometer with two polarising filters. The format is physicochemical. Particulars: average of 20 replicate readings, cuvette. From the text: A standard commercial fluorescence spectrometer (LS50-B, Perkin Elmer) was used to carry out conventional measurements of fluorescence, scattered light intensity and for obtaining excitation and emission spectra, with a 1 cm path length acrylic cuvette (not shown). A yellow Schott glass filter (not shown) (YG495, thickness=3 mm) was placed within the sample chamber directly in front of the window of a PMT, in order to block excitation light scattered towards the PMT by yeast cells suspended in the cuvette. For fluorescence measurements the excitation and emission wavelengths were 490 and 520 nm respectively. […] Light intensity was recorded in arbitrary units produced directly by the instrument software.
Four fluorophores were chosen, which were close spectroscopic mimics of GFP. […] Using the commercial fluorescence spectrometer (not shown), the fluorescence excitation and emission spectra for each fluorophore and for GFP were obtained. […] HPTSA needed to be used at 20 times the concentration of fluorescein to obtain the same magnitude fluorescence signal.
To measure the fluorescence polarisation ratio (P) of the fluorophores, two polarising filters (not shown) (Grade HN38 polaroid sheet, laminated in rigid acrylic, thickness=3.4 mm) were inserted within the housing 3, one either side of the sample cuvette (Which was used in place of the flow cell 2). […]

Series [2] is described as follows: Fluorescence polarisation by flow-injection analysis on the two-PMT apparatus. Type of series: physicochemical. Particulars: 488 nm excitation, GFP within whole GM-FF18984 yeast cells (0.005 % MMS, 18 hours), HPTSA 1×10^−7 mol l^−1 in phosphate buffer. On the procedure: An air cooled argon ion laser (162LGL, LG Laser Graphics GmbH, Dieburg, Germany), provided a 488 nm excitation light beam of 5 mW after filtering (TEM00>95%, beam diameter 0.67±0.05 mm). The light beam is represented by the arrow 1 in FIG. 1. The light beam 1 was plane polarised (>100:1). A four window quartz fluorescence flow cell 2 with an internal volume of 132 μl, specially constructed by Hellma Ltd, Southend-on-Sea, UK was housed in a cubic black plastic mounting block 3 (30×30×30 mm). The mounting block 3 was built at the University of Manchester Institute of Science and Technology. […]
A 488 nm interference filter 7, (3 nm half bandwidth), was used to filter the excitation light beam 1. […] One filter 8, 9 was rotated through 90° with respect to the other, such that one PMT 5 recorded the fluorescence intensity emitted polarised parallel with respect to the excitation beam (Ill), and the other PMT 6 recorded that emitted polarised perpendicular with respect to the excitation beam (Il). […] Additional filters were optimised and used in conjunction with the polarising filters to allow the laser-induced GFP fluorescence at 517 nm to be measured, whilst rejecting the high intensity laser light at 488 nm scattered towards the detector by yeast cells suspended in the stream of liquid passing through the flow cell. […]

Turning to `O=S(=O)([O-])c1cc(O)c2ccc3c(S(=O)(=O)[O-])cc(S(=O)(=O)[O-])c4ccc1c2c34.[Na+].[Na+].[Na+]` [HPTSA, 8-hydroxypyrene-1,3,6-trisulfonic acid trisodium salt], the “difference between Ill and Il” value in series [1] is reported as “less than 0.5%”. Moreover, the “average fluorescence polarisation ratio (P)” value in series [2] was “≈ 0”.
